Common to all, as to assay: relative viability (nuclei count vs DMSO), 5 days (fraction); higher = more cells survive
Compound in the assay “BAM7 + Bortezomib”: CCOC1=CC=CC=C1N=NC2=C(NN(C2=O)C3=NC(=CS3)C4=CC=CC=C4)C [BAM7] + CC(C)C[C@H](NC(=O)[C@H](Cc1ccccc1)NC(=O)c1cnccn1)B(O)O [Bortezomib] (partner 0.002 µM)
The procedure, abridged: (§1)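 Five library-drug doses in √10 steps were combined with a fixed anchor-drug dose, or a single drug was given alone, by pin tool to lung cancer cell lines in 1536-well plates the day after seeding. Nuclei were stained and counted after 5 days. Relative viability is the nuclei count in treated wells over that in vehicle wells, taken as the median of duplicate plates.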

Compound in the assay “BAM7 + Pictilisib”: CCOC1=CC=CC=C1N=NC2=C(NN(C2=O)C3=NC(=CS3)C4=CC=CC=C4)C [BAM7] + CS(=O)(=O)N1CCN(Cc2cc3nc(-c4cccc5[nH]ncc45)nc(N4CCOCC4)c3s2)CC1 [Pictilisib] (partner 1 µM)
The procedure, abridged: as §1

Compound in the assay “BAM7 + Olaparib”: CCOC1=CC=CC=C1N=NC2=C(NN(C2=O)C3=NC(=CS3)C4=CC=CC=C4)C [BAM7] + O=C(c1cc(Cc2n[nH]c(=O)c3ccccc23)ccc1F)N1CCN(C(=O)C2CC2)CC1 [Olaparib] (partner 8 µM)
The procedure, abridged: as §1

Compound in assay [1]: CCn1c(-c2nonc2N)nc2c(C#CC(C)(C)O)ncc(OC[C@H]3CCCNC3)c21 + Cc1nc(Nc2ncc(C(=O)Nc3c(C)cccc3Cl)s2)cc(N2CCN(CCO)CC2)n1 [Dasatinib] (partner 0.075 µM)
Put shortly:
as §1

For 201T, the relative viability in the assay with BAM7 + Bortezomib (first compound 0.5 µM) worked out at 1.05; with BAM7 + Bortezomib (first compound 5 µM) it was 1.13; in the assay with BAM7 + Bortezomib (first compound 15.81 µM) it was 0.925; in the assay with BAM7 + Bortezomib (first compound 50 µM), 0.987; with BAM7 + Pictilisib (first compound 0.5 µM), 0.637; in the assay with BAM7 + Pictilisib (first compound 5 µM), 0.625. The relative viability in the assay with BAM7 + Pictilisib (first compound 15.81 µM) is 0.593; in the assay with BAM7 + Pictilisib (first compound 50 µM), 0.69; with BAM7 + Olaparib (first compound 0.5 µM), 0.774; with BAM7 + Olaparib (first compound 5 µM), 0.746; with BAM7 + Olaparib (first compound 15.81 µM), 0.691; with BAM7 + Olaparib (first compound 50 µM), 0.765. Moreover, the relative viability turned out to be 0.576 in assay [1] (first compound 0.01 µM); 0.644 in assay [1] (first compound 0.03162 µM); 0.516 in assay [1] (first compound 0.1 µM); 0.51 in assay [1] (first compound 0.3162 µM); 0.597 in assay [1] (first compound 1 µM).
Regarding A549, the relative viability with BAM7 + Pictilisib (first compound 0.5 µM) was 0.566; with BAM7 + Pictilisib (first compound 5 µM), 0.507; with BAM7 + Pictilisib (first compound 15.81 µM) it was 0.483; with BAM7 + Pictilisib (first compound 50 µM), 0.508; with BAM7 + Olaparib (first compound 0.5 µM) it was 0.323; with BAM7 + Olaparib (first compound 5 µM), 0.319. The relative viability amounted to 0.432 with BAM7 + Olaparib (first compound 15.81 µM) and 0.476 with BAM7 + Olaparib (first compound 50 µM).
Consider A-427, for which the relative viability with BAM7 + Bortezomib (first compound 0.5 µM) came out at 0.965; with BAM7 + Bortezomib (first compound 5 µM) it was 0.978; with BAM7 + Bortezomib (first compound 15.81 µM), 0.893; with BAM7 + Bortezomib (first compound 50 µM) it was 1.04; in the assay with BAM7 + Pictilisib (first compound 0.5 µM), 0.557; with BAM7 + Pictilisib (first compound 5 µM), 0.75. Further, the relative viability in the assay with BAM7 + Pictilisib (first compound 15.81 µM) came to 0.676; with BAM7 + Pictilisib (first compound 50 µM), 0.72; with BAM7 + Olaparib (first compound 0.5 µM) it was 0.707; in the assay with BAM7 + Olaparib (first compound 5 µM), 0.736; with BAM7 + Olaparib (first compound 15.81 µM) it was 0.756; with BAM7 + Olaparib (first compound 50 µM), 0.762. Further, the relative viability came out at 0.624 in assay [1] (first compound 0.01 µM); 0.716 in assay [1] (first compound 0.03162 µM); 0.729 in assay [1] (first compound 0.1 µM); 0.729 in assay [1] (first compound 0.3162 µM); 0.793 in assay [1] (first compound 1 µM).
Turning to ABC-1, the relative viability with BAM7 + Bortezomib (first compound 0.5 µM) was determined as 0.326; with BAM7 + Bortezomib (first compound 5 µM) it was 0.355; with BAM7 + Bortezomib (first compound 15.81 µM), 0.295; with BAM7 + Bortezomib (first compound 50 µM) it was 0.383; in the assay with BAM7 + Pictilisib (first compound 0.5 µM) it was 0.746; with BAM7 + Pictilisib (first compound 5 µM), 0.674. Also, the relative viability with BAM7 + Pictilisib (first compound 15.81 µM) stood at 0.984; with BAM7 + Pictilisib (first compound 50 µM), 0.857; with BAM7 + Olaparib (first compound 0.5 µM), 0.765; with BAM7 + Olaparib (first compound 5 µM) it was 1.25; with BAM7 + Olaparib (first compound 15.81 µM) it was 0.638; in the assay with BAM7 + Olaparib (first compound 50 µM), 0.559. For the same cell line, the relative viability worked out at 0.531 in assay [1] (first compound 0.01 µM); 0.455 in assay [1] (first compound 0.03162 µM); 0.612 in assay [1] (first compound 0.1 µM); 0.448 in assay [1] (first compound 0.3162 µM); 0.559 in assay [1] (first compound 1 µM).
On to BEN, for which the relative viability amounted to 0.823 with BAM7 + Bortezomib (first compound 0.5 µM); 0.825 with BAM7 + Bortezomib (first compound 5 µM); 1.02 with BAM7 + Bortezomib (first compound 15.81 µM); 0.976 with BAM7 + Bortezomib (first compound 50 µM); 0.611 with BAM7 + Pictilisib (first compound 0.5 µM); 0.642 with BAM7 + Pictilisib (first compound 5 µM). Besides, the relative viability with BAM7 + Pictilisib (first compound 15.81 µM) was 0.518; with BAM7 + Pictilisib (first compound 50 µM), 0.59; in the assay with BAM7 + Olaparib (first compound 0.5 µM), 1.2; with BAM7 + Olaparib (first compound 5 µM), 1.09; with BAM7 + Olaparib (first compound 15.81 µM), 0.809; with BAM7 + Olaparib (first compound 50 µM), 1.04. Also, the relative viability in assay [1] (first compound 0.01 µM) worked out at 0.308; in assay [1] (first compound 0.03162 µM) it was 0.289; in assay [1] (first compound 0.1 µM) it was 0.304; in assay [1] (first compound 0.3162 µM) it was 0.337; in assay [1] (first compound 1 µM), 0.398.
In the case of CAL-12T, the relative viability in the assay with BAM7 + Bortezomib (first compound 0.5 µM) came to 0.986; with BAM7 + Bortezomib (first compound 5 µM) it was 0.97; with BAM7 + Bortezomib (first compound 15.81 µM), 1; with BAM7 + Bortezomib (first compound 50 µM) it was 1.09; in the assay with BAM7 + Pictilisib (first compound 0.5 µM), 0.467; in the assay with BAM7 + Pictilisib (first compound 5 µM), 0.526. The relative viability with BAM7 + Pictilisib (first compound 15.81 µM) was 0.413; in the assay with BAM7 + Pictilisib (first compound 50 µM), 0.466; with BAM7 + Olaparib (first compound 0.5 µM), 0.764; with BAM7 + Olaparib (first compound 5 µM), 0.653; in the assay with BAM7 + Olaparib (first compound 15.81 µM), 0.652; with BAM7 + Olaparib (first compound 50 µM), 0.711. For the same cell line, the relative viability in assay [1] (first compound 0.01 µM) is 0.404; in assay [1] (first compound 0.03162 µM) it was 0.459; in assay [1] (first compound 0.1 µM), 0.343; in assay [1] (first compound 0.3162 µM), 0.323; in assay [1] (first compound 1 µM) it was 0.326.
With COR-L23, the relative viability in the assay with BAM7 + Bortezomib (first compound 0.5 µM) came out at 1.03; in the assay with BAM7 + Bortezomib (first compound 5 µM) it was 1.06; with BAM7 + Bortezomib (first compound 15.81 µM), 0.845; with BAM7 + Bortezomib (first compound 50 µM), 0.916; with BAM7 + Pictilisib (first compound 0.5 µM), 0.832; with BAM7 + Pictilisib (first compound 5 µM), 0.855. Moreover, the relative viability in the assay with BAM7 + Pictilisib (first compound 15.81 µM) was 0.743; in the assay with BAM7 + Pictilisib (first compound 50 µM) it was 0.872; in the assay with BAM7 + Olaparib (first compound 0.5 µM), 0.379; with BAM7 + Olaparib (first compound 5 µM) it was 0.343; with BAM7 + Olaparib (first compound 15.81 µM), 0.332; in the assay with BAM7 + Olaparib (first compound 50 µM), 0.346. For the same cell line, the relative viability in assay [1] (first compound 0.01 µM) turned out to be 0.521; in assay [1] (first compound 0.03162 µM), 0.445; in assay [1] (first compound 0.1 µM), 0.505; in assay [1] (first compound 0.3162 µM), 0.467; in assay [1] (first compound 1 µM), 0.534.
Consider COR-L 105, for which the relative viability was 0.747 with BAM7 + Bortezomib (first compound 0.5 µM); 0.831 with BAM7 + Bortezomib (first compound 5 µM); 0.854 in the assay with BAM7 + Bortezomib (first compound 15.81 µM); 1.03 in the assay with BAM7 + Bortezomib (first compound 50 µM); 0.366 with BAM7 + Pictilisib (first compound 0.5 µM); 0.427 with BAM7 + Pictilisib (first compound 5 µM). For the same cell line, the relative viability came to 0.432 in the assay with BAM7 + Pictilisib (first compound 15.81 µM); 0.455 in the assay with BAM7 + Pictilisib (first compound 50 µM); 0.806 with BAM7 + Olaparib (first compound 0.5 µM); 0.746 in the assay with BAM7 + Olaparib (first compound 5 µM); 0.665 in the assay with BAM7 + Olaparib (first compound 15.81 µM); 0.707 with BAM7 + Olaparib (first compound 50 µM). The relative viability in assay [1] (first compound 0.01 µM) worked out at 0.365; in assay [1] (first compound 0.03162 µM), 0.326; in assay [1] (first compound 0.1 µM), 0.357; in assay [1] (first compound 0.3162 µM), 0.353; in assay [1] (first compound 1 µM), 0.287.
Turning to Calu-6, the relative viability was 0.969 with BAM7 + Bortezomib (first compound 0.5 µM); 0.986 in the assay with BAM7 + Bortezomib (first compound 5 µM); 0.94 in the assay with BAM7 + Bortezomib (first compound 15.81 µM); 1.01 with BAM7 + Bortezomib (first compound 50 µM); 1.01 with BAM7 + Pictilisib (first compound 0.5 µM); 0.98 in the assay with BAM7 + Pictilisib (first compound 5 µM). Besides, the relative viability is 0.893 in the assay with BAM7 + Pictilisib (first compound 15.81 µM); 0.823 with BAM7 + Pictilisib (first compound 50 µM); 0.552 in the assay with BAM7 + Olaparib (first compound 0.5 µM); 0.598 with BAM7 + Olaparib (first compound 5 µM); 0.53 with BAM7 + Olaparib (first compound 15.81 µM); 0.531 with BAM7 + Olaparib (first compound 50 µM).

Source of the values: the supplement of paper PMC10307832.
